Organism: Rattus norvegicus
Assay: Open TG-GATES - Regimen: Daily Repeat
Format: toxicity, organism-based, Sprague-Dawley
Parameters: regimen Daily Repeat, gender Male, age 6 weeks
Details: in vivo, po, 0 mg/kg, route gavage, dose level Control; for APTT / Bas / Eos / Fbg / Hb / Ht / Lym / MCH / MCHC / MCV / Mono / Neu / PT / Plat / RBC / Ret / WBC: tissue Blood; for KIDNEY_L / KIDNEY_R / KIDNEY_TOTAL: tissue Kidney; for LIVER: tissue Liver; for A/G / ALP / ALT / AST / BUN / CRE / Ca / Cl / DBIL / GLC / IP / K / LDH / Na / PL / RALB / TBIL / TC / TG / TP / gamma-GTP: tissue Plasma

## Nc1nc(N)c2nc(-c3ccccc3)c(N)nc2n1
72 h, time 3 day
  TERMINAL_BW: 242.6 g
  APTT: 16.3 s
  Bas: 0.2%
  Eos: 1%
  Fbg: 334.2 mg/dL
  Hb: 13.8 g/dL
  Ht: 40.7%
  Lym: 78.8%
  MCH: 20.8 pg
  MCHC: 33.9%
  MCV: 61.3 fL
  Mono: 2.2%
  Neu: 17.2%
  PT: 13.9 s
  Plat: 128.5 x10_4/uL
  RBC: 664.4 x10_4/ul
  Ret: 6.2%
  WBC: 102.2 x10_2/uL
  KIDNEY_L: 1.1 g
  KIDNEY_R: 1.1 g
  KIDNEY_TOTAL: 2.1 g
  LIVER: 11.1 g
  A/G: 0.9
  ALP: 1605.2 IU/L
  ALT: 41.4 IU/L
  AST: 69.4 IU/L
  BUN: 15 mg/dL
  CRE: 0.2 mg/dL
  Ca: 10.9 mg/dL
  Cl: 105.2 meq/L
  DBIL: 0.01 mg/dL
  GLC: 166 mg/dL
  IP: 7.7 mg/dL
  K: 4.1 meq/L
  LDH: 60.2 IU/L
  Na: 142.6 meq/L
  PL: 152.4 mg/dL
  RALB: 2.6 g/dL
  TBIL: 0.042 mg/dL
  TC: 80.6 mg/dL
  TG: 102.4 mg/dL
  TP: 5.6 g/dL
  gamma-GTP: 1 IU/L
[…], time 7 day
  TERMINAL_BW: 286.3 g
  APTT: 18 s
  Bas: 0%
  Eos: 0.6%
  Fbg: 302.8 mg/dL
  Hb: 13.9 g/dL
  Ht: 42.9%
  Lym: 78.8%
  MCH: 20.6 pg
  MCHC: 32.5%
  MCV: 63.6 fL
  Mono: 2.6%
  Neu: 17.6%
  PT: 13.3 s
  Plat: 136.4 x10_4/uL
  RBC: 675.8 x10_4/ul
  Ret: 5.9%
  WBC: 94 x10_2/uL
  KIDNEY_L: 1.2 g
  KIDNEY_R: 1.2 g
  KIDNEY_TOTAL: 2.3 g
  LIVER: 13.7 g
  A/G: 0.9
  ALP: 1612.4 IU/L
  ALT: 43.2 IU/L
  AST: 63.4 IU/L
  BUN: 16.2 mg/dL
  CRE: 0.2 mg/dL
  Ca: 11.1 mg/dL
  Cl: 104.4 meq/L
  DBIL: 0.014 mg/dL
  GLC: 186.2 mg/dL
  IP: 7.7 mg/dL
  K: 4.3 meq/L
  LDH: 63.4 IU/L
  Na: 142.4 meq/L
  PL: 179.4 mg/dL
  RALB: 2.7 g/dL
  TBIL: 0.076 mg/dL
  TC: 90.2 mg/dL
  TG: 133 mg/dL
  TP: 5.8 g/dL
  gamma-GTP: 1 IU/L
[…], time 14 day
  TERMINAL_BW: 328 g
  APTT: 18.4 s
  Bas: 0%
  Eos: 1%
  Fbg: 313.2 mg/dL
  Hb: 14.6 g/dL
  Ht: 44.3%
  Lym: 78.4%
  MCH: 19.5 pg
  MCHC: 33%
  MCV: 59.2 fL
  Mono: 2.6%
  Neu: 18%
  PT: 13.2 s
  Plat: 132.7 x10_4/uL
  RBC: 748 x10_4/ul
  Ret: 3.7%
  WBC: 91.5 x10_2/uL
  KIDNEY_L: 1.2 g
  KIDNEY_R: 1.2 g
  KIDNEY_TOTAL: 2.4 g
  LIVER: 13.8 g
  A/G: 0.8
  ALP: 1497.6 IU/L
  ALT: 34 IU/L
  AST: 60 IU/L
  BUN: 14.6 mg/dL
  CRE: 0.2 mg/dL
  Ca: 10.6 mg/dL
  Cl: 105.6 meq/L
  DBIL: 0.01 mg/dL
  GLC: 191.6 mg/dL
  IP: 7.5 mg/dL
  K: 4 meq/L
  LDH: 60.4 IU/L
  Na: 143 meq/L
  PL: 154.4 mg/dL
  RALB: 2.7 g/dL
  TBIL: 0.068 mg/dL
  TC: 72.8 mg/dL
  TG: 141.6 mg/dL
  TP: 5.9 g/dL
  gamma-GTP: 1 IU/L
[…], time 28 day
  TERMINAL_BW: 424 g
  APTT: 18 s
  Bas: 0.6%
  Eos: 1.2%
  Fbg: 294.6 mg/dL
  Hb: 15.4 g/dL
  Ht: 46.3%
  Lym: 82.6%
  MCH: 18.8 pg
  MCHC: 33.3%
  MCV: 56.5 fL
  Mono: 2.2%
  Neu: 13.6%
  PT: 13 s
  Plat: 111.3 x10_4/uL
  RBC: 819.6 x10_4/ul
  Ret: 2.3%
  WBC: 87 x10_2/uL
  KIDNEY_L: 1.5 g
  KIDNEY_R: 1.4 g
  KIDNEY_TOTAL: 2.9 g
  LIVER: 16.7 g
  A/G: 0.8
  ALP: 1077.6 IU/L
  ALT: 40 IU/L
  AST: 67.4 IU/L
  BUN: 16 mg/dL
  CRE: 0.2 mg/dL
  Ca: 10.8 mg/dL
  Cl: 104.2 meq/L
  DBIL: 0.012 mg/dL
  GLC: 194.8 mg/dL
  IP: 6.5 mg/dL
  K: 3.8 meq/L
  LDH: 76.4 IU/L
  Na: 143.4 meq/L
  PL: 144.8 mg/dL
  RALB: 2.8 g/dL
  TBIL: 0.066 mg/dL
  TC: 68.2 mg/dL
  TG: 149.6 mg/dL
  TP: 6.3 g/dL
  gamma-GTP: 1 IU/L
